# Columns and labels:
# [1] = test system: motilité; assay: motility test; format: in vivo, souris et/ou des chiens; conditions: dose de 13,5 MEq par kilo (carbonate de lithium: dose correspondante)
# [2] = test system: sécrétion de sérotonine; assay: test on serotonin secretion; format: in vivo, souris et/ou des chiens
# [3] = test system: systèmes dopaminer- gines; assay: test evaluating blockade of the dopaminergic systems; format: in vivo, souris et/ou des chiens
# [4] = test system: convulsions produites par un électrochoc; assay: convulsions produced by electroshock; format: in vivo, souris et/ou des chiens; conditions: dose de 5 MEq par kilo
# [5] = test system: test plaque chaude; assay: comparative analgesic activity (hot plate test); format: in vivo, souris et/ou des chiens; conditions: dose de 13 MEq par kilo
# [6] = acute toxicity (DL50), oral route; conditions: mouse, in vivo, souris, par voie orale
# Procedure: L'invention concerne enfin les médicaments qui contiennent au moins un produit de formule (1). Il a été trouvé en effet que les produits de formule (1) avaient une toxicité faible (la DL50 pour la souris et pour le produit de formule 1 dans lequel R est CH3 étant environ 3 200 mg/kg par voie orale) et une activité pharmacologique qui peut s'exprimer comme suit : • - diminution et/ou blocage des systèmes dopaminer- giques, • - augmentation, au moins transitoire, de la systhè- se de la sérotonine, • - pouvoir analgésique, les conséquences de ces actions se retrouvant dans les constatations suivantes : • - diminution de l'agressivité, • - diminution de la motilité et de la curiosité, • - protection contre les convulsions.
# [7] = test system: agressivité induite par des chocs électriques; assay: aggressiveness induced by electric shocks; format: in vivo, souris et/ou des chiens
Structure (SMILES),la motilité baisse [1],dose active après 24 heures [2],dose active à 100 % [3],protection des sujets [4],protection [5],LD50 [6],dose active [7],dose active à 50 % [3]
CNC(=O)OP(=O)(O)O [N-méthyl-carbamoylphosphate de lithium],36%,"6,75 MEq par kilo","6,75 MEq par kilo",40%,42%,~3200 mg/kg,10 MEq par kilo,
"O=C(O)O [carbonate de lithium, reference compound]",12%,10 MEq par kilo,,,27%,,,"10,115 MEq par kilo"
